Assays:
Type in all cases: in vivo, mouse (C57BL/6J male, 60% HFD DIO)
[1] = Example 1: body weight and body weight change rate, combined administration of HTD1801 and empagliflozin in DIO obesity model; settings: semaglutide 10 nmol/kg s.c. Q3D
Excerpt: (§1) After 5-week-old C57BL/6J male mice were acclimatized for 1 week, the weight of each mouse was weighed, and the mice were randomly divided into a control group and a model group by taking the weight as a main index, where 12 mice in the control group were fed with common feed (CD), and the mice in the remaining model group were fed with 60% high-fat feed (60% HFD) for 10-12 weeks to construct a DIO obesity model, with the average body weight being not less than 40 g. The mice fed with 60% HFD were grabbed and acclimatized with a solvent for 3 days, where the acclimatization with a solvent was performed by oral gavage of 0.5% CMC-Na, twice daily.
(§2) The food intake, the body weight, the body fat ratio, and the insulin level of the mice were respectively measured, followed by fasting blood glucose level, and the mice were randomly grouped according to Table 3 by taking the body weight as an index, and the remaining ungrouped mice were euthanized. After grouping, each group of mice was administered according to Table 3, the day of administration was defined as DO, and the administration volume of each drug was determined based on the results obtained by the calculation of 5 μL/g× mouse body weight (g).
(§3) For the combined administration group, the total administration volume was the sum of the administration volumes of two single drugs, and the administration sequence and the administration time were kept consistent at each administration. The mice were continuously fed with high-fat feed during the administration period until the administration was finished. During administration, 2 food intakes were measured per week (difference in feed weights at an interval of 24 h was measured); each group of mice was weighed once daily; postprandial blood glucose levels were measured weekly; blood was collected from the tail tip on day 6 and day 20, respectively, so as to measure fasting blood glucose levels once (blood was collected after fasting from 8:00 am to […]); on day 25 of administration, the body fat ratio and the lean mass of each group of mice were measured by MRI (the measurement period was kept consistent with that before grouping); after 4 weeks of administration intervention (day 28), each group of mice was fasted for 6 h and subjected to OGTT (0 min, 15 min, 30 min, 60 min, 90 min, 120 min) to detect their blood glucose levels, and meanwhile subjected to blood sampling via submaxillary vein (0 min, 15 min, 30 min, about 30 μL of blood sampled each time), and then the blood plasma was separated for detecting the insulin level by ELISA, where the separated blood plasma was more than 10 μL; the next day (D29) at the end of administration was set as the test endpoint, and the mice were fasted for 6 h in the morning and subjected to fasting blood glucose level measurement; subsequently, the mice were euthanized with CO2, blood was collected from the heart of each mouse for analysis, and each group of mice was dissected; the liver and subcutaneous, epididymal and mesenteric fat was collected, photographed and weighed, respectively.

[2] = Example 1: lean mass by MRI after 25 days
Excerpt: as §1, §2, §3
After 25 days of administration, the body weight, the Lean weight and the lean ratio of each animal in groups G1 to G5 were measured and averaged for each group, and the results are shown in Table 7 below, FIG. 9 and FIG. 10.

[3] = Example 1: fasting blood glucose level; settings: semaglutide 10 nmol/kg s.c. Q3D
Excerpt: as §1, §2
For the combined administration group, the total administration volume was the sum of the administration volumes of two single drugs, and the administration sequence and the administration time were kept consistent at each administration. The mice were continuously fed with high-fat feed during the administration period until the administration was finished. […]
After 20 days of administration, fasting blood glucose level results were measured for each group of animals and are shown in Table 8 below and FIG. 11.

[4] = Example 1: body fat mass by MRI after 25 days
Excerpt: as §1, §2, §3
After 25 days of administration, the body weight, the body fat mass and the body fat ratio of each animal in groups G1 to G6 were measured and averaged for each group, and the results are shown in Table 5 below, FIG. 4 and FIG. 5.

[5] = Example 1: food intake within 24 h; settings: during administration period, vs model control group
Excerpt: as §1
as §2, with “(g). […]” for “(g).”

[6] = Example 1: oral glucose tolerance test (OGTT), blood glucose; settings: HTD1801 200 mpk, empagliflozin 10 mpk (reduced after week 2), semaglutide 10 nmol/kg s.c. Q3D
Excerpt: as §1, §2, §3

[7] = day 0 (baseline), HTD1801 300 mpk, empagliflozin 15 mpk gavage QD
[8] = day 1, HTD1801 300 mpk, empagliflozin 15 mpk gavage QD
[9] = day 2, HTD1801 300 mpk, empagliflozin 15 mpk gavage QD
[10] = day 3, HTD1801 300 mpk, empagliflozin 15 mpk gavage QD
[11] = day 4, HTD1801 300 mpk, empagliflozin 15 mpk gavage QD
[12] = day 5, HTD1801 300 mpk, empagliflozin 15 mpk gavage QD
[13] = day 6, HTD1801 300 mpk, empagliflozin 15 mpk gavage QD
[14] = day 7, HTD1801 300 mpk, empagliflozin 15 mpk gavage QD
[15] = day 8, HTD1801 300 mpk, empagliflozin 15 mpk gavage QD
[16] = day 9, HTD1801 300 mpk, empagliflozin 15 mpk gavage QD
[17] = day 10, HTD1801 300 mpk, empagliflozin 15 mpk gavage QD
[18] = day 11, HTD1801 300 mpk, empagliflozin 15 mpk gavage QD
[19] = day 12, HTD1801 300 mpk, empagliflozin 15 mpk gavage QD
[20] = day 13, HTD1801 300 mpk, empagliflozin 15 mpk gavage QD
[21] = day 14, HTD1801 300 mpk, empagliflozin 15 mpk gavage QD
[22] = day 15, HTD1801 200 mpk, empagliflozin 10 mpk (reduced after week 2) gavage QD
[23] = day 16, HTD1801 200 mpk, empagliflozin 10 mpk (reduced after week 2) gavage QD
[24] = day 17, HTD1801 200 mpk, empagliflozin 10 mpk (reduced after week 2) gavage QD
[25] = day 18, HTD1801 200 mpk, empagliflozin 10 mpk (reduced after week 2) gavage QD
[26] = day 19, HTD1801 200 mpk, empagliflozin 10 mpk (reduced after week 2) gavage QD
[27] = day 20, HTD1801 200 mpk, empagliflozin 10 mpk (reduced after week 2) gavage QD
[28] = day 21, HTD1801 200 mpk, empagliflozin 10 mpk (reduced after week 2) gavage QD
[29] = day 22, HTD1801 200 mpk, empagliflozin 10 mpk (reduced after week 2) gavage QD
[30] = day 23, HTD1801 200 mpk, empagliflozin 10 mpk (reduced after week 2) gavage QD
[31] = day 24, HTD1801 200 mpk, empagliflozin 10 mpk (reduced after week 2) gavage QD
[32] = day 25, HTD1801 200 mpk, empagliflozin 10 mpk (reduced after week 2) gavage QD
[33] = day 26, HTD1801 200 mpk, empagliflozin 10 mpk (reduced after week 2) gavage QD
[34] = day 27, HTD1801 200 mpk, empagliflozin 10 mpk (reduced after week 2) gavage QD
[35] = day 28, HTD1801 200 mpk, empagliflozin 10 mpk (reduced after week 2) gavage QD
[36] = mean, after 25 days of administration, HTD1801 200 mpk, empagliflozin 10 mpk in last 2 weeks (300/15 mpk before)
[37] = mean, after 25 days of administration, HTD1801 200 mpk, empagliflozin 10 mpk in last 2 weeks (300/15 mpk before), semaglutide 10 nmol/kg s.c. Q3D

COc1ccc2cc3[n+](cc2c1OC)CCc1cc2c(cc1-3)OCO2.C[C@H](CCC(=O)[O-])[C@H]1CC[C@H]2[C@@H]3[C@@H](O)C[C@@H]4C[C@H](O)CC[C@]4(C)[C@H]3CC[C@]12C [HTD1801, berberine ursodeoxycholate]
body weight change (in words) ([1]; after 14 days, reduced dose: HTD1801 200 mpk, empagliflozin 10 mpk): slight rebound
Body weight (mean) [1, 7]: 43.6 g
Body weight change rate [1, 7]: 0.0%
Body weight (mean) [1, 8]: 42.9 g
Body weight change rate [1, 8]: −1.6%
Body weight (mean) [1, 9]: 43.1 g
Body weight change rate [1, 9]: −1.2%
Body weight (mean) [1, 10]: 42.3 g
Body weight change rate [1, 10]: −3.0%
Body weight (mean) [1, 11]: 42.3 g
Body weight change rate [1, 11]: −2.9%
Body weight (mean) [1, 12]: 42.5 g
Body weight change rate [1, 12]: −2.6%
Body weight (mean) [1, 13]: 42.0 g
Body weight change rate [1, 13]: −3.8%
Body weight (mean) [1, 14]: 41.5 g
Body weight change rate [1, 14]: −4.9%
Body weight (mean) [1, 15]: 40.8 g
Body weight change rate [1, 15]: −6.2%
Body weight (mean) [1, 16]: 40.7 g
Body weight change rate [1, 16]: −6.6%
Body weight (mean) [1, 17]: 40.7 g
Body weight change rate [1, 17]: −6.5%
Body weight (mean) [1, 18]: 40.6 g
Body weight change rate [1, 18]: −6.8%
Body weight (mean) [1, 19]: 40.8 g
Body weight change rate [1, 19]: −6.3%
Body weight (mean) [1, 20]: 40.4 g
Body weight change rate [1, 20]: −7.1%
Body weight (mean) [1, 21]: 39.7 g
Body weight change rate [1, 21]: −8.7%
Body weight (mean) [1, 22]: 39.5 g
Body weight change rate [1, 22]: −9.0%
Body weight (mean) [1, 23]: 39.6 g
Body weight change rate [1, 23]: −8.8%
Body weight (mean) [1, 24]: 39.4 g
Body weight change rate [1, 24]: −9.3%
Body weight (mean) [1, 25]: 38.9 g
Body weight change rate [1, 25]: −10.3%
Body weight (mean) [1, 26]: 38.9 g
Body weight change rate [1, 26]: −10.3%
Body weight (mean) [1, 27]: 39.2 g
Body weight change rate [1, 27]: −8.4%
Body weight (mean) [1, 28]: 39.5 g
Body weight change rate [1, 28]: −7.8%
Body weight (mean) [1, 29]: 39.7 g
Body weight change rate [1, 29]: −7.2%
Body weight (mean) [1, 30]: 40.2 g
Body weight change rate [1, 30]: −6.0%
Body weight (mean) [1, 31]: 40.5 g
Body weight change rate [1, 31]: −5.4%
Body weight (mean) [1, 32]: 40.7 g
Body weight change rate [1, 32]: −4.8%
Body weight (mean) [1, 33]: 40.1 g
Body weight change rate [1, 33]: −6.5%
Body weight (mean) [1, 34]: 40.2 g
Body weight change rate [1, 34]: −6.2%
Body weight (mean) [1, 35]: 39.5 g
Body weight change rate [1, 35]: −7.9%
body weight change / weight loss effect (in words) ([1]; within 14 days, HTD1801 300 mpk, empagliflozin 15 mpk gavage QD): continuously decreased over time
lean mass (in words) ([2]; after 25 days, relative to model control group G2): increased
Body weight ([2]; mean, after 25 days of administration (Table 7), HTD1801 200 mpk, empagliflozin 10 mpk in last 2 weeks (300/15 mpk before)): 40.10 g
Lean (lean mass) [2, 36]: 7.50 g
Lean ratio [2, 36]: 19.02%
Mean fasting blood glucose level [3, 13]: 7.9 mmol/L
Mean fasting blood glucose level ([3]; day 20, HTD1801 200 mpk, empagliflozin 10 mpk (reduced after week 2)): 8.4 mmol/L
body fat mass and body fat ratio (in words) ([4]; after 25 days, relative to control group G2): decreased
Body weight ([4]; mean, after 25 days of administration (Table 5), HTD1801 200 mpk, empagliflozin 10 mpk in last 2 weeks (300/15 mpk before), semaglutide 10 nmol/kg s.c. Q3D): 40.10 g
Body fat ratio [4, 37]: 40.12%
Fat (body fat mass) [4, 37]: 16.23 g
food intake within 24 h (in words) [5]: lower than the food intake for the model control group
OGTT blood glucose level ([6]; day 28, 0 min): 10.65 mmol/L
OGTT blood glucose level ([6]; day 28, 15 min): 19.88 mmol/L
OGTT blood glucose level ([6]; day 28, 30 min): 20.04 mmol/L
OGTT blood glucose level ([6]; day 28, 60 min): 23.48 mmol/L
OGTT blood glucose level ([6]; day 28, 90 min): 19.88 mmol/L
OGTT blood glucose level ([6]; day 28, 120 min (head printed "12 0min")): 22.22 mmol/L

Source: patent US20260373165A1, “PHARMACEUTICAL COMBINATIONS AND COMPOSITIONS, AND METHODS OF USE THEREOF” (SHENZHEN HIGHTIDE BIOPHARMACEUTICAL LTD., priority 2022, published 2026)
